Where only a bound is given, the exact number is not on record here.

From patent US20230167073A1 (Teijin Pharma Limited, priority 2020, published 2023) come the findings set out here.

The target of this test is T1, Human TRPC6 (Homo sapiens, UniProt Q9Y210).
T1 construct: expressed in transfected cells
T1 sequence (Q9Y210 1-931): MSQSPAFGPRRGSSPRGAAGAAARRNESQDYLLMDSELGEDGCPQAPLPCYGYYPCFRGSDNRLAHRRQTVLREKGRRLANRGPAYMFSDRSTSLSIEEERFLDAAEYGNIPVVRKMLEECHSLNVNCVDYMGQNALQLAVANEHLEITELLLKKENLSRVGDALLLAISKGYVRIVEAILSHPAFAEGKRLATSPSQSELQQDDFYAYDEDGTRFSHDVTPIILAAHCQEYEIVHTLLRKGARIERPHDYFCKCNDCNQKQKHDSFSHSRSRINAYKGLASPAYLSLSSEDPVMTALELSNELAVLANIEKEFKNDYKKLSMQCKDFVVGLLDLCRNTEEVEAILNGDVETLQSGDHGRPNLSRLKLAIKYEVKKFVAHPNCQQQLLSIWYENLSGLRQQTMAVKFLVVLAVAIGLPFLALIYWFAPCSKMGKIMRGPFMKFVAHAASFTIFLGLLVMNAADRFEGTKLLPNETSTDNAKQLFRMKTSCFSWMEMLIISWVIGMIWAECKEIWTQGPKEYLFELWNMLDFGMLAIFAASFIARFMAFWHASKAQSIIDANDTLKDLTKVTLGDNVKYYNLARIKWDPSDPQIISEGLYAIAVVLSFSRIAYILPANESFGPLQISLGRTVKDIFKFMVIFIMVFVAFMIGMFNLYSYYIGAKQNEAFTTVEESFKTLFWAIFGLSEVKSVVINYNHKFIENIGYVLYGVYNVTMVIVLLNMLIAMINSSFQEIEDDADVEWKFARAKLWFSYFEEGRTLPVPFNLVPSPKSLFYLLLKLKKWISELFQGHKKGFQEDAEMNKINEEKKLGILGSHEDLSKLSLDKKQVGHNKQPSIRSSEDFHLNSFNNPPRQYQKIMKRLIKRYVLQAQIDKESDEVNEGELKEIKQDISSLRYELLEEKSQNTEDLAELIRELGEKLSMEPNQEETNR
Nature of the test: Evaluation of TRPC6 channel inhibitory activity (1), FLIPR Calcium 5 Assay Kit, OAG stimulation (Compound Nos. 1-1293). In kind it is cell-based. To be noted: Human TRPC6 stably-expressing cells, OAG 30 μM, FLIPR Calcium 5 Assay Kit; read-out: Inhibitory activity (pIC50 class) (converted). In a few lines: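 Cells stably expressing human TRPC6, plated 24 h before, were loaded 30 min with Calcium 5 dye plus probenecid in HEPES-HBSS. Compound was added 20 min before OAG (30 μM final) and fluorescence tracked on FLIPR. Inhibition normalised to no-compound and no-compound/no-OAG wells; pIC50 from four-parameter fit, reported as +/++/+++ categories.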
On to `Cc1nc(C(=O)c2cc(C#N)ccc2-c2ncc(CN)cn2)cc(N2CCOCC2)n1` [compound 1053, 4-[5-(aminomethyl)pyrimidin-2-yl]-3-(2-methyl-6-morpholin-4-ylpyrimidine-4-carbonyl)benzonitrile], for which the IC50 is > 1000 nM. In the case of `Cn1nc(-c2cccc(F)c2)cc1Oc1cc(C#N)ccc1-c1ccc(CCN)cc1` [Compound 186, 4-[4-(2-aminoethyl)phenyl]-3-[5-(3-fluorophenyl)-2-methylpyrazol-3-yl]oxybenzonitrile], the IC50 was < 10 nM.

For `Cc1nc(Oc2cc(C#N)ccc2-c2ccc(CCN)cc2)cc(N2CC(F)(F)C(F)(F)C2)n1` [Compound 26, 4-[4-(2-aminoethyl)phenyl]-3-[2-methyl-6-(3,3,4,4-tetrafluoropyrrolidin-1-yl)pyrimidin-4-yl]oxybenzonitrile], the IC50 was < 10 nM. As for `N#Cc1ccc(-c2ccc(CCN)nc2)c(Oc2cc(N3CCOCC3)cnn2)c1` [Compound 80, 4-[6-(2-aminoethyl)pyridin-3-yl]-3-(5-morpholin-4-ylpyridazin-3-yl)oxybenzonitrile], the figure is > 1000 nM; as for `Cn1nc(N2CCCCC2)cc1Oc1cc(C#N)ccc1-c1ccc(CC2(N)COC2)cn1` [compound 742, 4-[5-[(3-aminooxetan-3-yl)methyl]pyridin-2-yl]-3-(2-methyl-5-piperidin-1-ylpyrazol-3-yl)oxybenzonitrile], < 10 nM. As for `Cc1nc(Oc2cc(C#N)ccc2-c2ncc([C@H](O)CN)cn2)cc(N2C[C@@H](C)O[C@@H](C)C2)n1` [compound 524, 4-[5-[(1S)-2-amino-1-hydroxyethyl]pyrimidin-2-yl]-3-[6-[(2S,6R)-2,6-dimethylmorpholin-4-yl]-2-methylpyrimidin-4-yl]oxybenzonitrile], the IC50 was 10 to 1000 nM. `N#Cc1ccc(-c2ccc(CCN)cc2)c(Oc2cnnc(-c3ccccc3O)c2)c1` [Compound 70, 4-[4-(2-aminoethyl)phenyl]-3-[6-(2-hydroxyphenyl)pyridazin-4-yl]oxybenzonitrile]: the IC50 was < 10 nM. Under `Cc1nc(Oc2cc(C#N)ccc2-c2ccc(CC3(N)COC3)cn2)cc(N2CCC(F)CC2)n1` [compound 667, 4-[5-[(3-aminooxetan-3-yl)methyl]pyridin-2-yl]-3-[6-(4-fluoropiperidin-1-yl)-2-methylpyrimidin-4-yl]oxybenzonitrile] stands 10 to 1000 nM; under `CC(C)OCc1cc(Oc2cc(C#N)ccc2-c2ccc(CCN)cn2)n(C)n1` [Compound 255, 4-[5-(2-aminoethyl)pyridin-2-yl]-3-[2-methyl-5-(propan-2-yloxymethyl)pyrazol-3-yl]oxybenzonitrile], 10 to 1000 nM; under `N#Cc1ccc(-c2ncc(CCN)cn2)c(Oc2cc(C3CC3)nn2CC(F)(F)F)c1` [compound 379, 4-[5-(2-aminoethyl)pyrimidin-2-yl]-3-[5-cyclopropyl-2-(2,2,2-trifluoroethyl)pyrazol-3-yl]oxybenzonitrile], < 10 nM.

For the compound `N#Cc1ccc(-c2ccc(C(O)CN)cn2)c(Cn2cncc2-c2ccccc2)c1` (stereo not shown) [compound 1133, 4-[5-(2-amino-1-hydroxyethyl)pyridin-2-yl]-3-[(5-phenylimidazol-1-yl)methyl]benzonitrile], the IC50 is > 1000 nM. As for `CC(C)Cn1cc(Cc2cc(C#N)ccc2-c2ncc(CCN)cn2)cn1` [Compound No. 1195, 4-[5-(2-Aminoethyl)pyrimidin-2-yl]-3-[[1-(2-methylpropyl)pyrazol-4-yl]methyl]benzonitrile], the figure is < 10 nM. With `Cc1nc(Oc2cc(C#N)ccc2-n2cc(C(O)CN)cn2)cc(-c2ccc(F)cc2)n1` (stereo not shown) [Compound 140, 4-[4-(2-amino-1-hydroxyethyl)pyrazol-1-yl]-3-[6-(4-fluorophenyl)-2-methylpyrimidin-4-yl]oxybenzonitrile], the IC50 was 10 to 1000 nM.
